This note sets out measurements from patent publication US20070122451A1, “Biogically non-degradable peptides, angiostensin converting enzyme inhibitor, drug and functional food” (Calpis Co., Ltd., priority 2003, published 2007).

Peptide text beside a SMILES is read from it.

This test deals with T1, ACE derived from bovine lung (Bos taurus, UniProt P12820).
T1 construct: ACE derived from bovine lung; host or cells: bovine lung tissue
T1 sequence (P12820 29-1306): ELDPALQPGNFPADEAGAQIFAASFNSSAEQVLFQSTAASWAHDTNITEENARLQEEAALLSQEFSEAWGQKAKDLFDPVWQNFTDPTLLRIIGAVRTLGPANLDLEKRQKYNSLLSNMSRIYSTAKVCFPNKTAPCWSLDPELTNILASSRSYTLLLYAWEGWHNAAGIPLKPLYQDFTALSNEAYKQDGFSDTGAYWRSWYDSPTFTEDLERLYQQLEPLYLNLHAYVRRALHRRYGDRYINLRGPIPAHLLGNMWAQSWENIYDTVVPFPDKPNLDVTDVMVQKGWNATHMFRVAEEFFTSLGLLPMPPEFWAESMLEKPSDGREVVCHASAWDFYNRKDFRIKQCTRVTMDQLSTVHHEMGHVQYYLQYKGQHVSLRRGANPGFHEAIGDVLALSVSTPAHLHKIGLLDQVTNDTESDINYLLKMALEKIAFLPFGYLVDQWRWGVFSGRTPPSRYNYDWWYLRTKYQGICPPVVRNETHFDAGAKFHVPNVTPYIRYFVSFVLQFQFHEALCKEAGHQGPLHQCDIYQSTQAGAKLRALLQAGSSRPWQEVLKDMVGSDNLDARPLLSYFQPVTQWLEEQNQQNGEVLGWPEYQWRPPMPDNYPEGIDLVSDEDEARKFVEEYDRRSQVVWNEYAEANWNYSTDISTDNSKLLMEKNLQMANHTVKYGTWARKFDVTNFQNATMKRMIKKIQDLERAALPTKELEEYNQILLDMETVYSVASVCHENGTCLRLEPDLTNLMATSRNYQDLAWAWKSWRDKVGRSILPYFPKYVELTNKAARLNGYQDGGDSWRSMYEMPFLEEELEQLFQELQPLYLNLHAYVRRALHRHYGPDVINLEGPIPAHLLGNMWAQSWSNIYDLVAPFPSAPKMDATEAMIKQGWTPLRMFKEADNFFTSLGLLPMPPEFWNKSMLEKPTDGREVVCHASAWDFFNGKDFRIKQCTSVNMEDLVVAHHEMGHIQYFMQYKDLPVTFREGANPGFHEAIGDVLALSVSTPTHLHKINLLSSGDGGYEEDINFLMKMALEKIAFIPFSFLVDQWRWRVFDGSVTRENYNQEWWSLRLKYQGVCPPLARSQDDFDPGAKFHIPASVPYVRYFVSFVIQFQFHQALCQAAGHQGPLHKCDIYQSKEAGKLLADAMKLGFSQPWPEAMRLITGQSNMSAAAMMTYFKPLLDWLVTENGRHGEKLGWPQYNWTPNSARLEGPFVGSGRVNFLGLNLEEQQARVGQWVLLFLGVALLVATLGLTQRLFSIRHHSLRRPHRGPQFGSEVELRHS
The test is described as follows: Evaluation of ACE inhibitory activity (hippuryl-histidyl-leucine substrate, absorbance at 228 nm). Type of test: biochemical. The settings on record: peptide concentration at which ACE inhibitory effect was 50%; 37° C., 30 minutes, pH 8.3 borate buffer. The method, then:
Solutions of each of these peptides at various concentrations were prepared, and measured for the ACE inhibitory activity in accordance with the method discussed below. The peptide concentration (μM) at which the ACE inhibitory effect was 50% was taken as IC50 value.
<Evaluation of ACE Inhibitory Activity>
ACE derived from bovine lung (manufactured by WAKO PURE CHEMICAL […], LTD.) was dissolved in a 0.1M borate buffer at pH 8.3 in an amount of 0.1 U, to obtain an ACE solution. […] Subsequently, the reaction was terminated by adding 250 μl of 1N hydrochloric acid (manufactured by WAKO PURE CHEMICAL […], LTD.). 1.7 ml of ethyl acetate (manufactured by WAKO PURE CHEMICAL […], LTD.) was then added, and stirred. 1.4 ml of the ethyl acetate layer was taken, placed in another tube, and evaporated at 120° C. for about 60 minutes to obtain a dried product. The dried product was dissolved in 1 ml of distilled water, and the absorbance at 228 nm of hippuric acid extracted with ethyl acetate was measured. As controls, absorbance was measured of a solution without the diluted solution and a solution without the diluted solution and the ACE solution. From the obtained absorbance, ACE inhibitory activity was calculated in accordance with the following formula. ACE inhibitory activity (%)=[(A−B)/A]×100 • A: (Absorbance of solution without diluted solution but with ACE solution)—(Absorbance of solution without diluted solution and ACE solution)
B: (Absorbance of solution with diluted solution and ACE solution)—(Absorbance of solution with diluted solution but without ACE solution)
What is called IC50 is the midpoint of a concentration-inhibition curve. A high value points to lower potency. `NC(N)=NCCC[C@H](N)C(=O)N1CCC[C@H]1C(=O)O` [Arg-Pro] (H-Arg-Pro-OH) yielded an IC50 of 275 µM.
The value for `NC(=O)CC[C@H](N)C(=O)N1CCC[C@H]1C(=O)O` [Gln-Pro] (H-Gln-Pro-OH) was 65.8 µM; that for `N[C@@H](CCC(=O)O)C(=O)N1CCC[C@H]1C(=O)O` [Glu-Pro] (H-Glu-Pro-OH; N-terminus and C-terminus assumed) was 175 µM; that for `CC[C@H](C)[C@H](N)C(=O)N1CCC[C@H]1C(=O)O` [Ile-Pro] (H-Ile-Pro-OH; N-terminus and C-terminus assumed) was 444 µM.
Next, `CSCC[C@H](N)C(=O)N1CCC[C@H]1C(=O)O` [Met-Pro] (H-Met-Pro-OH; N-terminus and C-terminus assumed): 135 µM.
